Laboratory results taken from ChEMBL document CHEMBL1201862, “PubChem BioAssay data set” (2004).
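96-well plates; 48 h exposure; 5 concentrations. Endpoints by linear interpolation between flanking doses. Not reached: highest tested concentration assigned. GI50 is the concentration that inhibits growth by half.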 Activity calls are given as the source filed them. Cut-off read from the data, not from the text of the source: active = GI50 up to about 1.1 µM and inactive = higher.

Key:
Assay in all cases: DTP human tumour cell line panel, 48 h
[1] = test system: 786-0
[2] = test system: A498
[3] = test system: BT-549
[4] = test system: CCRF-CEM
[5] = test system: EKVX
[6] = test system: HOP-62
[7] = test system: HOP-92
[8] = test system: HT-29
[9] = test system: Hs-578T
[10] = test system: NCI-H23
[11] = test system: NCI-H522
[12] = test system: OVCAR-8
[13] = test system: SF-295
[14] = test system: SF-539
[15] = test system: SK-MEL-28
[16] = test system: SK-MEL-5
[17] = test system: SNB-75
[18] = test system: UACC-257
[19] = test system: UO-31

SMILES | GI50 [1] | GI50 [2] | GI50 [3] | GI50 [4] | GI50 [5] | GI50 [6] | GI50 [7] | GI50 [8] | GI50 [9] | GI50 [10] | GI50 [11] | GI50 [12] | GI50 [13] | GI50 [14] | GI50 [15] | GI50 [16] | GI50 [17] | GI50 [18] | GI50 [19]
COc1cc2oc3ccccc3c(=O)c2cc1CSc1ccccc1N | 35.9 µM (inactive) | 17.3 µM (inactive) | 29.3 µM (inactive) | 4.94 µM (inactive) | 24.1 µM (inactive) | 22.8 µM (inactive) | 35.2 µM (inactive) | 18.7 µM (inactive) | 36 µM (inactive) | 29.9 µM (inactive) | 8.89 µM (inactive) | 33.5 µM (inactive) | 14.2 µM (inactive) | 45.3 µM (inactive) | 18.7 µM (inactive) | 13.5 µM (inactive) | 30.8 µM (inactive) | 47.5 µM (inactive) | 
CC1C(OS(=O)(=O)c2ccc3nc(S)sc3c2)CC2C3(C)CCC2(C(C)C(=O)O)C(O)C13 (centres undefined) | 20.2 µM (inactive) | 54.7 µM (inactive) | 24.9 µM (inactive) | 3.85 µM (inactive) | 31.3 µM (inactive) | 29.1 µM (inactive) | 26.6 µM (inactive) | 17.5 µM (inactive) | 48.1 µM (inactive) | 17.9 µM (inactive) | 3.29 µM (inactive) | 20.1 µM (inactive) | 28 µM (inactive) | 17.6 µM (inactive) | 26.8 µM (inactive) | 14.8 µM (inactive) |  | 75.7 µM (inactive) | 17.4 µM (inactive)
CCOC(=O)C(C)c1nc2ccc(C(F)(F)F)cc2[nH]c1=O (centres undefined) | > 100 µM (inactive) | 34 µM (inactive) | 42 µM (inactive) | 77.8 µM (inactive) | 43.1 µM (inactive) | > 100 µM (inactive) | 43.9 µM (inactive) | 51.6 µM (inactive) | 68.4 µM (inactive) | 49.9 µM (inactive) |  | 94.6 µM (inactive) | 45.5 µM (inactive) | > 100 µM (inactive) | > 100 µM (inactive) | 52.7 µM (inactive) | 46.6 µM (inactive) | 58.7 µM (inactive) | 36.2 µM (inactive)
O=C(O)c1ccc(Nc2cnc3ccc(C(F)(F)F)cc3n2)cc1 | 38.9 µM (inactive) | 23.8 µM (inactive) | 20.9 µM (inactive) | 15.6 µM (inactive) | 38.2 µM (inactive) | 16.1 µM (inactive) | 15.5 µM (inactive) | 17.1 µM (inactive) | 7.08 µM (inactive) | 17 µM (inactive) |  | 17.1 µM (inactive) | 19.6 µM (inactive) | 23.9 µM (inactive) | 34 µM (inactive) | 16.9 µM (inactive) | 11.7 µM (inactive) | 32.7 µM (inactive) | 13.7 µM (inactive)
CCCCCCc1cc2cc(C(=O)NCc3ccccc3)c(=N)oc2cc1O | > 100 µM (inactive) | > 100 µM (inactive) | > 100 µM (inactive) | > 100 µM (inactive) | > 100 µM (inactive) | > 100 µM (inactive) | > 100 µM (inactive) | > 100 µM (inactive) | > 100 µM (inactive) | > 100 µM (inactive) | > 100 µM (inactive) | > 100 µM (inactive) |  | > 100 µM (inactive) | > 100 µM (inactive) | > 100 µM (inactive) | > 100 µM (inactive) | > 100 µM (inactive) | 
S=CN1CCCCC1 | > 100 µM (inactive) | > 100 µM (inactive) | > 100 µM (inactive) | > 100 µM (inactive) | > 100 µM (inactive) | > 100 µM (inactive) |  | > 100 µM (inactive) | > 100 µM (inactive) | > 100 µM (inactive) | > 100 µM (inactive) | > 100 µM (inactive) | > 100 µM (inactive) | > 100 µM (inactive) | > 100 µM (inactive) | > 100 µM (inactive) | > 100 µM (inactive) | > 100 µM (inactive) | > 100 µM (inactive)
COCCOC(=O)c1c(C)[n+]([O-])c2cc(Cl)c(Cl)cc2[n+]1[O-] | 22.6 µM (inactive) | 20.3 µM (inactive) | 19.1 µM (inactive) | 9.29 µM (inactive) | 17.1 µM (inactive) | 11 µM (inactive) | 5.21 µM (inactive) | 18.7 µM (inactive) | 32.7 µM (inactive) | 19.8 µM (inactive) | 17.1 µM (inactive) | 7.06 µM (inactive) | 17.1 µM (inactive) | 22.6 µM (inactive) | 28.4 µM (inactive) | 7.6 µM (inactive) |  | 20.2 µM (inactive) | 0.311 µM (active)
O=C(O)c1nc2cc(C(F)(F)F)ccc2[nH]c1=O | > 100 µM (inactive) | > 100 µM (inactive) | > 100 µM (inactive) | > 100 µM (inactive) | > 100 µM (inactive) | > 100 µM (inactive) | > 100 µM (inactive) | > 100 µM (inactive) | > 100 µM (inactive) | > 100 µM (inactive) | > 100 µM (inactive) | > 100 µM (inactive) | > 100 µM (inactive) | > 100 µM (inactive) | > 100 µM (inactive) | > 100 µM (inactive) |  | > 100 µM (inactive) | 60.8 µM (inactive)
CCOC(=O)c1sc(=S)n(-c2ccc(Cl)cc2)c1-n1cc(-c2ccccc2)c(C#N)c1N | 11 µM (inactive) | 23.1 µM (inactive) | 23.7 µM (inactive) | 31.8 µM (inactive) | 22.5 µM (inactive) | 3.13 µM (inactive) | 15.4 µM (inactive) | 51.6 µM (inactive) | 4.19 µM (inactive) | 21.8 µM (inactive) | 3.32 µM (inactive) | 12.1 µM (inactive) | 13.3 µM (inactive) | 19.8 µM (inactive) | 38.2 µM (inactive) | 16.3 µM (inactive) | 16 µM (inactive) | 41.4 µM (inactive) | 
CC(=O)NCC1OC2COC(c3ccccc3)OC2C2N=C(c3ccccc3)OC12 (centres undefined) | > 100 µM (inactive) | 37.4 µM (inactive) | 68.1 µM (inactive) | 35.4 µM (inactive) | 38 µM (inactive) | > 100 µM (inactive) | 61.1 µM (inactive) | 34.8 µM (inactive) | 51.5 µM (inactive) | > 100 µM (inactive) |  | 57 µM (inactive) | 35.3 µM (inactive) | > 100 µM (inactive) | 59.6 µM (inactive) | 39.2 µM (inactive) | 38.2 µM (inactive) | 57.5 µM (inactive) | 39.9 µM (inactive)
Cc1cc(OCc2nnc3sc(NC(=O)c4ccccc4)nn23)ccc1Cl | 33.1 µM (inactive) | 27.2 µM (inactive) | 41.7 µM (inactive) | 43.3 µM (inactive) | 31.1 µM (inactive) | 20.1 µM (inactive) | 17.4 µM (inactive) | 38.4 µM (inactive) | 32.1 µM (inactive) | 30.7 µM (inactive) | 30.6 µM (inactive) | 20.7 µM (inactive) | 36.6 µM (inactive) | > 100 µM (inactive) | 67.5 µM (inactive) | 32.4 µM (inactive) |  | 37.7 µM (inactive) | 19 µM (inactive)
Cc1[nH]n(C2=NCCN2)c(=O)c1Cc1ccccc1 | > 100 µM (inactive) | > 100 µM (inactive) | > 100 µM (inactive) | > 100 µM (inactive) | > 100 µM (inactive) | > 100 µM (inactive) | > 100 µM (inactive) | > 100 µM (inactive) | > 100 µM (inactive) | > 100 µM (inactive) | > 100 µM (inactive) | > 100 µM (inactive) | > 100 µM (inactive) | > 100 µM (inactive) |  | > 100 µM (inactive) |  | > 100 µM (inactive) | > 100 µM (inactive)
N#Cc1c(N)nc(Sc2ccccc2N)c(C#N)c1-c1ccc(Cl)cc1 | 6.98 µM (inactive) | 2.65 µM (inactive) | 4.21 µM (inactive) | > 27.2 µM (inactive) | 4.29 µM (inactive) | 3.7 µM (inactive) | 15.8 µM (inactive) | 7.71 µM (inactive) | 7.26 µM (inactive) | 21.4 µM (inactive) | 11.6 µM (inactive) | 9.12 µM (inactive) | 6.65 µM (inactive) | 11.8 µM (inactive) | 33.6 µM (inactive) | 12.6 µM (inactive) |  | 15.9 µM (inactive) | 2.79 µM (inactive)
CC(C)(C)C1CCC2c3c([nH]c4ccccc34)C3C(=O)N(c4cc(Cl)ccc4Cl)C(=O)C3C2C1 (centres undefined) | > 100 µM (inactive) | > 100 µM (inactive) | > 100 µM (inactive) | > 100 µM (inactive) | > 100 µM (inactive) | > 100 µM (inactive) | 65.8 µM (inactive) | > 100 µM (inactive) | 45.5 µM (inactive) | > 100 µM (inactive) |  | 52.6 µM (inactive) | > 100 µM (inactive) | > 100 µM (inactive) |  | > 100 µM (inactive) |  | > 100 µM (inactive) | > 100 µM (inactive)
O=C1c2cc3ccccc3cc2C2(c3ccc(Cl)cc3)NCCN12 (centres undefined) | 38.1 µM (inactive) | 77.3 µM (inactive) | 54 µM (inactive) | 33 µM (inactive) | 26.5 µM (inactive) | 32.4 µM (inactive) | 34.4 µM (inactive) | 34.8 µM (inactive) | 38.3 µM (inactive) | 22.1 µM (inactive) |  | 33.3 µM (inactive) | 25.5 µM (inactive) | 23 µM (inactive) | 39.6 µM (inactive) | 20 µM (inactive) | 27.8 µM (inactive) | 31.8 µM (inactive) | 29.9 µM (inactive)
Cc1ccc2c(=O)cc(-c3cccc(F)c3)[nH]c2n1 | 0.0446 µM (active) | 0.052 µM (active) | 0.0348 µM (active) | 0.0446 µM (active) | 0.0719 µM (active) | 0.0655 µM (active) | 0.9 µM (active) | 0.0359 µM (active) | 0.0237 µM (active) | 0.0501 µM (active) | 0.0188 µM (active) | 0.0638 µM (active) | 0.0321 µM (active) | 0.0728 µM (active) | 0.64 µM (active) | 0.0206 µM (active) | 0.0218 µM (active) | 0.0395 µM (active) | 
